Data as given in patent US6319702A, “Nucleic acids encoding mutant human carboxypeptidase A enzymes” (Glaxo Wellcome, Inc., priority 1993, dated 2001).
Where two headings read alike, the source gives them in different places.

How the values were obtained:
268ala = experiment: Enzyme kinetics of prodrugs with 268ala mutant of human CPA1 (coupled assay); format: biochemical; details: 25° C., pH 7.4
Outline: (§1)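 Coupled spectrophotometric assay: released methotrexate converted by excess carboxypeptidase G (17 milliunits) to its pteroate, followed at 315 nm (Δε 9.57 mM^-1 cm^-1). 25° C in 25 mM tris-HCl, 100 mM NaCl, pH 7.4; reaction started with wild-type or mutant carboxypeptidase A. Kinetic constants from initial velocities by Michaelis-Menten analysis.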

[1] = target: T1, wild type human carboxypeptidase A1 (Homo sapiens, UniProt P15085); experiment: Enzyme kinetics of prodrugs with wild type human carboxypeptidase A1 (coupled assay); format: biochemical
T1 sequence (P15085 111-419): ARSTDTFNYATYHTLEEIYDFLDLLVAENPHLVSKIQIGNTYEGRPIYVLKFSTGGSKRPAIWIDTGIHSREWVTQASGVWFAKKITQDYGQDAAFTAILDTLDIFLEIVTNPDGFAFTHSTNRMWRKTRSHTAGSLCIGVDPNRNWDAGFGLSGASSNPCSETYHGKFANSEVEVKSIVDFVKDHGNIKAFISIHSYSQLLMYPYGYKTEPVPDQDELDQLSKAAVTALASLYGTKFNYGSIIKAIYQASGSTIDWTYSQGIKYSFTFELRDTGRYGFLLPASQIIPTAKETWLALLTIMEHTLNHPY
Outline: as §1

in vivo = details: mouse, iv
mutant enzyme = experiment: Substrate behaviour with mutant enzyme; format: biochemical, human
Description: This type of compound is not useful for ADEPT.

[2] = mouse, in vivo, iv
268gly = experiment: Enzyme kinetics of prodrugs with 268gly mutant of human CPA1 (coupled assay); format: biochemical
Outline: as §1

[3] = Stability and biodistribution of prodrugs in vivo (HPLC of plasma and tissues); design: species or system mice (CD-1 nude; BALB/C where indicated)

SMILES: CN(Cc1cnc2nc(N)nc(N)c2n1)c1ccc(C(=O)N[C@@H](CCC(=O)O)C(=O)N[C@@H](Cc2ccc(O)c(C3CCCC3)c2)C(=O)O)cc1 [Prodrug 13, N-(4-(((2,4-diamino-6-pteridinyl)methyl)methyamino)benzoyl)-L-glutam-1-yl-3-cyclopentyl-L-tyrosine]
- Km (268ala): 50 µM
- kcat (268ala): 0.0006 s⁻¹
- human CPA catalyzed reaction (in words) [1]: not measureable
- kcat/Km for human CPA1 compared with that of the L-phenylalanine prodrug (in words) [1]: much lower
- substrate for wild type CPA (in words) [1]: not for the wild type enzyme
- kcat (symbol ND) ([1]; Human CPA1, rate too slow to assay): ND (not determined; rate to slow assay. kcat ≤ 0.0005/sec.)
- MTD (in vivo): ≥ 50 mg/kg
- substrate for a mutant enzyme (in words) (mutant enzyme): good substrates for a mutant enzyme
- maximum tolerated dose (MTD) [2]: > 50 mg/kg
- kcat/Km (268gly; 268Gly): 180000 M⁻¹ s⁻¹
- Km (268gly; 268gly, 25° C., pH 7.4): 18 µM
- kcat (268gly; 268gly, 25° C., pH 7.4): 3 s⁻¹
- concentration of prodrug in cecum ([3]; CECUM, 30 min, 50 mg/kg i.p. or i.v., CD-1 nude mice): 14.4 nmol/g
- concentration of prodrug in cecum ([3]; CECUM, 120 min, 50 mg/kg i.p. or i.v., CD-1 nude mice): 4.8 nmol/g
- concentration of prodrug in feces ([3]; FECES, 30 min, 50 mg/kg i.p. or i.v., CD-1 nude mice): 665.8 nmol/g
- concentration of prodrug in feces ([3]; FECES, 120 min, 50 mg/kg i.p. or i.v., CD-1 nude mice): 738.4 nmol/g
- concentration of prodrug in kidney ([3]; KIDNEY, 30 min, 50 mg/kg i.p. or i.v., CD-1 nude mice): 3.7 nmol/g
- concentration of prodrug in kidney ([3]; KIDNEY, 120 min, 50 mg/kg i.p. or i.v., CD-1 nude mice): 0.5 nmol/g
- concentration of prodrug in large intestine ([3]; LARGE INTESTINE, 30 min, 50 mg/kg i.p. or i.v., CD-1 nude mice): 7.9 nmol/g
- concentration of prodrug in large intestine ([3]; LARGE INTESTINE, 120 min, 50 mg/kg i.p. or i.v., CD-1 nude mice): 12.5 nmol/g
- concentration of prodrug in liver ([3]; LIVER, 30 min, 50 mg/kg i.p. or i.v., CD-1 nude mice): 47.7 nmol/g
- concentration of prodrug in liver ([3]; LIVER, 120 min, 50 mg/kg i.p. or i.v., CD-1 nude mice): 129.0 nmol/g
- concentration of prodrug in small intestine ([3]; SMALL INTESTINE, 30 min, 50 mg/kg i.p. or i.v., CD-1 nude mice): 373.7 nmol/g
- concentration of prodrug in small intestine ([3]; SMALL INTESTINE, 120 min, 50 mg/kg i.p. or i.v., CD-1 nude mice): 322.1 nmol/g
- concentration of prodrug in spleen ([3]; SPLEEN, 30 min, 50 mg/kg i.p. or i.v., CD-1 nude mice): 0.6 nmol/g
- concentration of prodrug in spleen ([3]; SPLEEN, 120 min, 50 mg/kg i.p. or i.v., CD-1 nude mice): 0.2 nmol/g
- stability in vivo (in words) ([3]; mice, 50 mg/kg): stable in vivo
- remaining at 0.5 h ([3]; mouse, cecum, 50 mg/kg, CECUM, 30 min, 50 mg/kg i.p. or i.v., CD-1 nude mice, read-out: stability: percentage of material observed as intact prodrug, cecum): 100%
- remaining at 2 h ([3]; mouse, cecum, 50 mg/kg, CECUM, 120 min, 50 mg/kg i.p. or i.v., CD-1 nude mice, read-out: stability: percentage of material observed as intact prodrug, cecum): 100%
- remaining at 0.5 h ([3]; mouse, feces, 50 mg/kg, FECES, 30 min, 50 mg/kg i.p. or i.v., CD-1 nude mice, read-out: stability: percentage of material observed as intact prodrug, feces (converted)): 100%
- remaining at 2 h ([3]; mouse, feces, 50 mg/kg, FECES, 120 min, 50 mg/kg i.p. or i.v., CD-1 nude mice, read-out: stability: percentage of material observed as intact prodrug, feces): 100%
- remaining at 0.5 h ([3]; mouse, kidney, 50 mg/kg, KIDNEY, 30 min, 50 mg/kg i.p. or i.v., CD-1 nude mice, read-out: stability: percentage of material observed as intact prodrug, kidney): 100%
- remaining at 2 h ([3]; mouse, kidney, 50 mg/kg, KIDNEY, 120 min, 50 mg/kg i.p. or i.v., CD-1 nude mice, read-out: stability: percentage of material observed as intact prodrug, kidney): 100%
- remaining at 0.5 h ([3]; mouse, large intestine, 50 mg/kg, LARGE INTESTINE, 30 min, 50 mg/kg i.p. or i.v., CD-1 nude mice, read-out: stability: percentage of material observed as intact prodrug, large intestine): 100%
- remaining at 2 h ([3]; mouse, large intestine, 50 mg/kg, LARGE INTESTINE, 120 min, 50 mg/kg i.p. or i.v., CD-1 nude mice, read-out: stability: percentage of material observed as intact prodrug, large intestine): 100%
- remaining at 0.5 h ([3]; mouse, liver, 50 mg/kg, LIVER, 30 min, 50 mg/kg i.p. or i.v., CD-1 nude mice, read-out: stability: percentage of material observed as intact prodrug, liver (converted)): 100%
- remaining at 2 h ([3]; mouse, liver, 50 mg/kg, LIVER, 120 min, 50 mg/kg i.p. or i.v., CD-1 nude mice, read-out: stability: percentage of material observed as intact prodrug, liver): 100%
- concentration at 0.5 h ([3]; mouse, plasma, 50 mg/kg, PLASMA, 30 min, 50 mg/kg i.p. or i.v., CD-1 nude mice, read-out: concentration of prodrug in plasma): 3.3 µM
- remaining at 0.5 h ([3]; mouse, plasma, 50 mg/kg, PLASMA, 30 min, 50 mg/kg i.p. or i.v., CD-1 nude mice, read-out: stability: percentage of material observed as intact prodrug, plasma): 100%
- concentration at 2 h ([3]; mouse, plasma, 50 mg/kg, PLASMA, 120 min, 50 mg/kg i.p. or i.v., CD-1 nude mice, read-out: concentration of prodrug in plasma): 0.6 µM
- remaining at 2 h ([3]; mouse, plasma, 50 mg/kg, PLASMA, 120 min, 50 mg/kg i.p. or i.v., CD-1 nude mice, read-out: stability: percentage of material observed as intact prodrug, plasma): 100%
- remaining at 0.5 h ([3]; mouse, small intestine, 50 mg/kg, SMALL INTESTINE, 30 min, 50 mg/kg i.p. or i.v., CD-1 nude mice, read-out: stability: percentage of material observed as intact prodrug, small intestine): 100%
- remaining at 2 h ([3]; mouse, small intestine, 50 mg/kg, SMALL INTESTINE, 120 min, 50 mg/kg i.p. or i.v., CD-1 nude mice, read-out: stability: percentage of material observed as intact prodrug, small intestine): 100%
- remaining at 0.5 h ([3]; mouse, spleen, 50 mg/kg, SPLEEN, 30 min, 50 mg/kg i.p. or i.v., CD-1 nude mice, read-out: stability: percentage of material observed as intact prodrug, spleen): 100%
- remaining at 2 h ([3]; mouse, spleen, 50 mg/kg, SPLEEN, 120 min, 50 mg/kg i.p. or i.v., CD-1 nude mice, read-out: stability: percentage of material observed as intact prodrug, spleen): 100%
